The text below walks through data of patent publication US11780845B2 (Relay Therapeutics, Inc., priority 2019, dated 2023).

For orientation: IC50 means the concentration that gives 50% inhibition. A low value points to greater potency in that assay.

FGFR2, sequence (P21802 22-821): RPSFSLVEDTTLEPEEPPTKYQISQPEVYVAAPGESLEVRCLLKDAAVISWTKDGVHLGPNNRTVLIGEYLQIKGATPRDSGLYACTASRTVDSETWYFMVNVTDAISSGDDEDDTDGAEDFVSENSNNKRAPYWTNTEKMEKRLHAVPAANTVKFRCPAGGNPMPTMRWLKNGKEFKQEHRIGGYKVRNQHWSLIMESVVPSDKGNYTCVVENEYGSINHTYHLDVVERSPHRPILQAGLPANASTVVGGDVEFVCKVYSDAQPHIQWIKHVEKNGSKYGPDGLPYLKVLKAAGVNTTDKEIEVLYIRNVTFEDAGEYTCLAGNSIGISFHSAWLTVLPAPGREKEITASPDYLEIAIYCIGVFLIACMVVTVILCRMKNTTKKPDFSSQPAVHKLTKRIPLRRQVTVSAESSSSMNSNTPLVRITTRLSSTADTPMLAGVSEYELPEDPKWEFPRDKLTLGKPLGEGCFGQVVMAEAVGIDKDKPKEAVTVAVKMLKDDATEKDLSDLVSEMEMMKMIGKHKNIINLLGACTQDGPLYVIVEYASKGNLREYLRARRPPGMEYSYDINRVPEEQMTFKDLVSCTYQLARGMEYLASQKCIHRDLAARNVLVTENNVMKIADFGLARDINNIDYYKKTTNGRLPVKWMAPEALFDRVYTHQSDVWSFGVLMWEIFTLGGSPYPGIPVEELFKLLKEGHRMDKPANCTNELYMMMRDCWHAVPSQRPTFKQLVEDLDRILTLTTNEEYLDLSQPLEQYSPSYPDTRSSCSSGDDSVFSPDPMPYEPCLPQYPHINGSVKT

The assay has as its target FGFR2 (Homo sapiens (Human), UniProt P21802). Description: FGFR2 Biochemical Caliper Assay. As to the method:
Compounds of the present invention were also tested in a FGFR2 Biochemical Caliper Assay. Compounds were prepared in 10 mM DMSO solution and serially diluted into 11 concentrations by 3-fold dilution. […] 5 uL of ATP solution (100 uM) was added to start the reaction and the plate was incubated for 90 minutes, then 70 uL of stopping buffer (0.5M EDTA) was added to terminate the reaction. Each well was analyzed using EZ reader.
The compound `C=C(C)C(=O)Nc1ccc(-c2c(C3=CCCN(C(C)=O)C3)c3c(N)ncnc3n2C)cc1` [Example 136] gave an IC50 of 1 to 100 µM.
With `C=C(C)C(=O)Nc1ccc(-c2c(-c3ccc(Oc4nccc(C)n4)c(OCC)c3)c3c(N)ncnc3n2C)cc1` [Example 491], the half-maximal inhibitory concentration (IC50) was in the range of 1 to 100 µM.
Compound `CCC(=O)Nc1ccc(-c2c(-c3ccc(Oc4ccccn4)c(OC)c3)c3c(N)ncnc3n2C)cc1` [Example 67] yielded a concentration for half-maximal inhibition (IC50) of 1 to 100 µM.
For `Cn1c(-c2ccc(NC(=O)CC3=CCCC3)cc2)c(-c2ccc(C(=O)N3CCCC3)cc2)c2c(N)ncnc21` [Example 542], the IC50 lay in the range of 1 to 100 µM.
Under `C=C(C)C(=O)Nc1ccc(-c2c(-c3ccc(OCC4CCCC4)cc3)c3c(N)ncnc3n2C)cc1` [Example 253] stands 0.25 to 1 µM.
For `C=C(C)C(=O)Nc1ccc(-c2c(-c3ccc4c(c3)CCC4C(=O)N(C)C)c3c(N)ncnc3n2C)cc1` (centres unmarked) [Example 191], the half-maximal inhibitory concentration (IC50) was in the range of 1 to 100 µM.
Under `C=C(C)C(=O)Nc1ccc(-c2c(-c3cc(F)c(C(=O)NCC(C)(C)OC)c(F)c3)c3c(N)ncnc3n2C)cc1` [Example 470] stands 0.1 to 0.25 µM.
Under `C=CC(=O)Nc1ccc(-c2c(-c3ccc(Nc4ncccn4)c(OC)c3)c3c(N)ncnc3n2C)cc1` [Example 56] stands less than 0.1 µM.
Under `C=C(C)C(=O)Nc1ccc(-c2c(C3=CCC(C(=O)N4CCCC[C@@H]4C)CC3)c3c(N)ncnc3n2C)cc1` (some centres unmarked) [Example 404] stands 0.1 to 0.25 µM; under `C=C(C)C(=O)N(C)c1ccc(-c2c(-c3ccc(Oc4cccc(C)n4)cc3)c3c(N)ncnc3n2C)cc1` [Example 414], 0.1 to 0.25 µM; under `C=C(C)C(=O)Nc1ccc(-c2c(-c3ccc(C(=O)N4CC[C@H](OC)C4)cc3)c3c(N)ncnc3n2C)cc1` [Example 240], 1 to 100 µM.
Regarding `C=C(C)C(=O)Nc1ccc(-c2c(-c3ccc(C(=O)NC4CC(O)C4)cc3)c3c(N)ncnc3n2C)cc1` (centres unmarked) [Example 328], the IC50 is 0.25 to 1 µM.
The compound `C=C(C)C(=O)Nc1ccc(-c2c(-c3ccc(OCc4ccccc4)nc3)c3c(N)ncnc3n2C)cc1` [Example 138] showed an IC50 of 1 to 100 µM.
`C=C(C)C(=O)Nc1ccc(-c2c(-c3ccc(C(=O)N4CCCC4)cc3C)c3c(N)ncnc3n2C)cc1` [Example 597] displayed an IC50 of 1 to 100 µM.
Under `C=C(C)C(=O)Nc1ccc(-c2c(-c3ccn(Cc4cccc(C)n4)c(=O)c3)c3c(N)ncnc3n2C)cc1` [Example 488] stands 1 to 100 µM.
Under `Cn1c(-c2ccc(N3CCC=CC3=O)cc2)c(-c2ccc(C(=O)N3CCCC3)cc2)c2c(N)ncnc21` [Example 540] stands 1 to 100 µM.
Compound `C=C(C)C(=O)Nc1ccc(-c2c(-c3ccc(Oc4cccc(C)n4)cc3)c3c(N)ncnc3n2C2CCOCC2)cc1` [Example 88] registered an IC50 of 0.1 to 0.25 µM.
`C=C(C)C(=O)Nc1ccc(-c2c(-c3ccc(Oc4ccc(C)cn4)c(O)c3)c3c(N)ncnc3n2C)cc1` [Example 108] registered an IC50 of 1 to 100 µM.
With `Cn1c(-c2ccc(C#N)nc2)c(-c2ccc(C(=O)N3CCCC3)cc2)c2c(N)ncnc21` [Example 493], the IC50 lay in the range of 1 to 100 µM.
Under `C=C(C)C(=O)Nc1ccc(-c2c(-c3cnc4c(c3)OCCN4C)c3c(N)ncnc3n2C)cc1` [Example 214] stands 0.1 to 0.25 µM.
Under `C=C(C)C(=O)Nc1ccc(-c2c(-c3ccc(Oc4ncc(N(C)C)cn4)cc3)c3c(N)ncnc3n2C)cc1` [Example 456] stands 0.25 to 1 µM.
`C=C(C)C(=O)Nc1ccc(-c2c(-c3ccc(C(=O)N4CCC[C@H]4C#N)cc3)c3c(N)ncnc3n2C)cc1` [Example 359]: the half-maximal inhibitory concentration (IC50) was less than 0.1 µM.
`Cn1c(-c2ccc(NC(=O)[C@H]3CO3)cc2)c(-c2ccc(C(=O)N3CCCC3)cc2)c2c(N)ncnc21` (single isomer, unassigned) [Example 585] had an IC50 of 0.1 to 0.25 µM.
Under `C=C(C)C(=O)Nc1ccc(-c2c(-c3cccc(OC)c3)c3c(N)ncnc3n2C)cc1` [Example 55] stands 0.25 to 1 µM; under `C=C(C)C(=O)Nc1ccc(-c2c(-c3ccc(C(=O)NCCC4COC4)cc3)c3c(N)ncnc3n2C)cc1` [Example 367], 0.25 to 1 µM; under `C=C(C)C(=O)Nc1ccc(-c2c(-c3ccc(-c4cocn4)cc3)c3c(N)ncnc3n2C)cc1` [Example 278], 0.25 to 1 µM.
For `C=C(C)C(=O)Nc1ccc(-c2c(-c3ccc4[nH]c(=O)n(C)c4c3)c3c(N)ncnc3n2C)cc1` [Example 203], the IC50 was in the range of 1 to 100 µM.
Under `C=C(C)C(=O)Nc1ccc(-c2c(C3=CC4CCC(C3)N4)c3c(N)ncnc3n2C)cc1` (centres unmarked) [Example 168] stands 0.1 to 0.25 µM; under `C=C(C)C(=O)Nc1ccc(-c2c(-c3ccc(Oc4nccc(C)n4)c(F)c3)c3c(N)ncnc3n2C2CCOC2)cc1` (centres unmarked) [Example 536], less than 0.1 µM; under `C=C(C)C(=O)Nc1ccc(-c2c(-c3ccc(Oc4cccc(C#N)n4)cc3)c3c(N)ncnc3n2C)cc1` [Example 345], less than 0.1 µM.
Compound `C=C(C)C(=O)Nc1ccc(-c2c(-c3ccc(Oc4cccc(C)c4)c(OC)c3)c3c(N)ncnc3n2C)cc1` [Example 33] returned an IC50 of 0.25 to 1 µM.
Under `C=C(C)C(=O)Nc1ccc(-c2c(-c3ccc(C(=O)N4CCCC4)cc3)c3c(N)ncnc3n2C)c([C@@H]2CCCO2)c1` (single isomer, unassigned) [Example 510] stands less than 0.1 µM; under `C=C(C)C(=O)Nc1ccc(-c2c(C3=CC[C@H](C(=O)NCC(C)(C)OC)CC3)c3c(N)ncnc3n2C)cc1` (single isomer, unassigned) [Example 432], 1 to 100 µM.
Regarding `C=C(C)C(=O)Nc1ccc(-c2c(-c3ccc(C(=O)N4CC5(CCO5)C4)cc3)c3c(N)ncnc3n2C)cc1` [Example 243], the 50% inhibitory concentration (IC50) was in the range of 1 to 100 µM.
The compound `C=C(C)C(=O)Nc1ccc(-c2c(-c3cc(F)c(Oc4ccccn4)c(F)c3)c3c(N)ncnc3n2C)cc1` [Example 107] showed a half-inhibitory concentration (IC50) of 0.25 to 1 µM.
Under `C=C(C)C(=O)Nc1ccc(-c2c(-c3ccc4[nH]c(C(=O)N(C)C)cc4c3)c3c(N)ncnc3n2C)cc1` [Example 205] stands 1 to 100 µM; under `C=C(C)C(=O)Nc1ccc(-c2c(-c3ccc(C(=O)NC4CC(F)C4)cc3)c3c(N)ncnc3n2C)cc1` (centres unmarked) [Example 364], less than 0.1 µM.
Compound `C=C(C)C(=O)Nc1ccc(-c2c(-c3ccc4cn(C)nc4c3)c3c(N)ncnc3n2C)cc1` [Example 164] registered an IC50 of 0.1 to 0.25 µM.
`C=C(C)C(=O)Nc1ccc(-c2c(-c3cccc(C(=O)N4CCCC4)c3)c3c(N)ncnc3n2C)cc1` [Example 183] gave a 50% inhibitory concentration (IC50) of 1 to 100 µM.
Regarding `C=C(C)C(=O)Nc1ccc(-c2c(-c3ccc(C(=O)NC4CC(CO)C4)cc3)c3c(N)ncnc3n2C)cc1` (centres unmarked) [Example 330], the half-inhibitory concentration (IC50) is 0.1 to 0.25 µM.
With `C=C(C)C(=O)Nc1ccc(-c2c(-c3ccc(C(=O)NCC(C)(C)OC)nc3)c3c(N)ncnc3n2C)cc1` [Example 438], the IC50 lay within 1 to 100 µM.
Under `C=C(C)C(=O)Nc1ccc(-c2c(-c3ccc4c(c3)COC4c3cccc(C)n3)c3c(N)ncnc3n2C)cc1` (centres unmarked) [Example 599] stands 0.1 to 0.25 µM; under `C=CC(=O)N1CCC(N2CC(c3c(-c4ccc(Oc5cccc(C)n5)cc4)c4c(N)ncnc4n3C)C2)CC1` [Example 659], 1 to 100 µM.
Under `C=CC(=O)Nc1ccc(-c2c(C3CCN(C)CC3)c3c(N)ncnc3n2C)cc1` [Example 99] stands 1 to 100 µM; under `C=C(C)C(=O)Nc1ccc(-c2c(-c3ccc(C4=NNC(C)O4)nc3)c3c(N)ncnc3n2C)cc1` (centres unmarked) [Example 285], 1 to 100 µM.
Compound `C=CC(=O)N[C@H]1CC[C@H](c2c(-c3ccc(Oc4cccc(C)n4)c(OC)c3)c3c(N)ncnc3n2C)CC1` [Example 625] displayed an IC50 of 0.25 to 1 µM.
Under `C=C(C)C(=O)Nc1ccc(-c2c(-c3ccc(C(=O)NCC4(C#N)CC4)cc3)c3c(N)ncnc3n2C)cc1` [Example 360] stands less than 0.1 µM; under `Cn1c(-c2ccc(NC(=O)C=C3CCC3)cc2)c(-c2ccc(C(=O)N3CCCC3)cc2)c2c(N)ncnc21` [Example 525], 1 to 100 µM.
Under `C=CC(=O)Nc1ccc(-c2c(C3CCN(C(=O)C(C)CCNC)CC3)c3c(N)ncnc3n2C)cc1` (centres unmarked) [Example 105] stands 0.25 to 1 µM.
On to `C=C(C)C(=O)Nc1ccc(-c2c(-c3ccc(Oc4nccc(C)n4)c(F)c3)c3c(N)ncnc3n2C)c(C(=O)N(C)C)c1` [Example 519], for which the IC50 lay within 1 to 100 µM.
Regarding `C=C(C)C(=O)Nc1ccc(-c2c(-c3ccc(C(=O)N4CCCC4)nc3)c3c(N)ncnc3n2C)cc1` [Example 422], the IC50 fell in the range of 1 to 100 µM.
`C=C(C)C(=O)Nc1ccc(-c2c(-c3ccc4c(c3)CNC4=O)c3c(N)ncnc3n2C)cc1` [Example 250]: the 50% inhibitory concentration (IC50) lay within 1 to 100 µM.
Under `C=C(C)C(=O)Nc1ccc(-c2c(-c3ccc(C(=O)NCC4COC4)cc3)c3c(N)ncnc3n2C)cc1` [Example 366] stands 0.1 to 0.25 µM.
Under `Cc1cccc(Oc2ccc(-c3c(-c4cnc(C#N)nc4)n(C)c4ncnc(N)c34)cc2)n1` [Example 405] stands less than 0.1 µM; under `C=C(C)C(=O)Nc1ccc(-c2c(-c3cnc(Oc4cccc(C)n4)nc3)c3c(N)ncnc3n2C)cc1` [Example 483], 1 to 100 µM.
In the case of `C=C(C)C(=O)Nc1ccc(-c2c(-c3cc(F)c(Oc4cnccn4)c(F)c3)c3c(N)ncnc3n2C)cc1` [Example 118], the half-maximal inhibitory concentration (IC50) lay in the range of 1 to 100 µM.
Under `C=C(C)C(=O)Nc1ccc(-c2c(-c3ccc(C(=O)N4CC5(CCC5)C4)cc3)c3c(N)ncnc3n2C)cc1` [Example 231] stands 1 to 100 µM.
Compound `C=C(C)C(=O)Nc1ccc(-c2c(-c3cnn(Cc4cccc(C)n4)c3)c3c(N)ncnc3n2C)cc1` [Example 439] came in with a half-inhibitory concentration (IC50) of 1 to 100 µM.
Under `C=C(C)C(=O)Nc1ccc(-c2c(-c3ccc(NC(=O)C4CCC4)cc3)c3c(N)ncnc3n2C)cc1` [Example 226] stands less than 0.1 µM; under `C=C(C)C(=O)Nc1ccc(-c2c(-c3ccc(-n4cccn4)nc3)c3c(N)ncnc3n2C)cc1` [Example 192], 1 to 100 µM.
Under `C=CC(=O)N[C@H]1C[C@H](n2cc(-c3c(-c4ccc(Oc5ccccc5)cc4)c4c(N)ncnc4n3C)cn2)C1` [Example 605] stands less than 0.1 µM; under `C=C(C)C(=O)Nc1ccc(-c2c(-c3ccc(C(=O)NC4CCOC4)c(F)c3)c3c(N)ncnc3n2C)cc1` (centres unmarked) [Example 396], 0.1 to 0.25 µM.
